Laboratory results reported in patent US8614168B2, “Use of azoles for increasing the abiotic stress resistance of plants or plant parts” (Monheim, priority 2008, dated 2013).

How the values were obtained:
[1] = test system: BRSNS: oilseed rape (Brassica napus); experiment: Dry stress test on potted plants, spray application, oilseed rape; type: in vivo; conditions: individual substance
Experimental: (§1) Seeds of monocotyledonous and dicotyledonous crop plants are placed in sandy loam in wood-fiber pots, covered with soil and cultivated in a greenhouse under good growth conditions. The test plants are treated in the early leaf stage (BBCH10-BBCH13, BBCH-Monografie der Biologische Bundesanstalt für Land and Forstwirtschaft, 2nd edition, 2001), i.e. 2-3 weeks after sowing according to the species. To ensure uniform water supply before commencement of stress, the potted plants were supplied with the maximum amount of water immediately beforehand by dam irrigation and transferred in plastic inserts in order to prevent subsequent, excessively rapid drying. The inventive compounds, formulated in the form of wettable powders (WP), are then sprayed onto the green parts of the plants as an aqueous suspension at an equivalent water application rate of 600 l/ha with addition of 0.2% wetting agent (agrotin). Substance application is followed immediately by stress treatment of the plants (cold or dry stress). Dry stress is induced by slow drying under the following conditions: • “day”: 14 hours with illumination at 26° C. • “night”: 10 hours without illumination at 18° C. The cold stress phase is ended after exactly 14 days. The duration of the dry stress phase is guided mainly by the state of the untreated, stressed control plants and thus varies from crop to crop. It is ended (by re-irrigating) as soon as irreversible damage is observed on the untreated, stressed control plants. In the case of dicotyledonous crops, for example oilseed rape and soya, the duration of the dry stress phase is between 4 and 6 days, in the case of monocotyledonous crops, for example wheat, barley or corn, between 6 and 10 days. The end of the stress phase is followed by a 7-day recovery phase, during which the plants are once again kept under good growth conditions in a greenhouse. In order to rule out any influence of the effects observed by any fungicidal action of the test compounds, it is additionally ensured that the tests proceed without fungal infection and without infection pressure. After the recovery phase has ended, the intensities of damage are rated visually compared to untreated, unstressed controls of the same age (in the case of dry stress) or the same growth stage (in the case of cold stress). The intensity of damage is first assessed as a percentage (100%=plants have died, 0%=like control plants). These values are then used to calculate the efficacy of the test compounds (=percentage reduction in the intensity of damage as a result of substance application) by the following formula: [formula] EF: efficacy (%) DVus: damage value of the untreated, stressed control DVts: damage value of the plants treated with test compound The table below lists mean values in each case from three results of the same test.

ZEAMX: corn (Zea mais) = experiment: Dry stress test on potted plants, spray application, corn; type: in vivo; conditions: individual substance
Experimental: as §1

[2] = test system: crop plants, for example oilseed rape; experiment: Stunting: mean plant height after azole application; type: in vivo; conditions: dosage 250 g/ha, comparative 11.7 cm
Excerpt: In the case of application of the inventive azoles, this stunting occurs to a lower or non-undesirable degree: […]

ABA 8′-hydroxylase = conditions: studies to date (Kitahata et al., 2005; Saito et al., 2006); cited from earlier work
[3] = test system: HORVS barley (Hordeum vulgare); experiment: Dry stress test on potted plants, spray application, barley; type: in vivo; conditions: 100 g/ha, individual substance
Experimental: Seeds of monocotyledonous and dicotyledonous crop plants are placed in sandy loam in wood-fiber pots, covered with soil and cultivated in a greenhouse under good growth conditions. The test plants are treated in the early leaf stage (BBCH10-BBCH13, BBCH-Monografie der Biologische Bundesanstalt für Land and Forstwirtschaft, 2nd edition, 2001), i.e. 2-3 weeks after sowing according to the species. To ensure uniform water supply before commencement of stress, the potted plants were supplied with the maximum amount of water immediately beforehand by dam irrigation and transferred in plastic inserts in order to prevent subsequent, excessively rapid drying. The inventive compounds, formulated in the form of wettable powders (WP), are then sprayed onto the green parts of the plants as an aqueous suspension at an equivalent water application rate of 600 l/ha with addition of 0.2% wetting agent (agrotin). Substance application is followed immediately by stress treatment of the plants (cold or dry stress). Dry stress is induced by slow drying under the following conditions: • “day”: 14 hours with illumination at 26° C. • “night”: 10 hours without illumination at 18° C. The cold stress phase is ended after exactly 14 days. […] The intensity of damage is first assessed as a percentage (100%=plants have died, 0%=like control plants). […]

Row | SMILES | efficacy (percentage reduction in the intensity of damage) ([1]; 250 g/ha) | efficacy (percentage reduction in the intensity of damage) (ZEAMX: corn (Zea mais); 100 g/ha) | efficacy (percentage reduction in the intensity of damage) (ZEAMX: corn (Zea mais); 250 g/ha) | efficacy (percentage reduction in the intensity of damage) ([1]; 100 g/ha) | Mean plant height (cm) [2] | inhibiting action on abscisic acid catabolism or ABA 8′-hydroxylase (ABA 8′-hydroxylase) | efficacy (percentage reduction in the intensity of damage) [3]
1 | CC(C1CC1)C(O)(Cn1cncn1)c1ccc(Cl)cc1 (stereo not shown) [cyproconazole] | 42% | 40% | 37% |  |  |  | 
2 | CC(C)(C)C(O)(CCc1ccc(Cl)cc1)Cn1cncn1 (stereo not shown) [tebuconazole] | 42% |  | 30% | 27% | 10.2 cm | only slight inhibiting action, if any | 
3 | Fc1ccc([C@]2(Cn3cncn3)O[C@H]2c2ccccc2Cl)cc1 (racemic) [epoxiconazole] |  | 11% |  | 35% |  |  | 17%
4 | CC1(C)CCC(Cc2ccc(Cl)cc2)C1(O)Cn1cncn1 (stereo not shown) [metconazole] |  |  |  | 50% |  |  | 
5 | OC(Cc1ccccc1Cl)(Cn1nc[nH]c1=S)C1(Cl)CC1 (stereo not shown) [prothioconazole] |  | 12% |  | 12% | 10.2 cm |  | 11%
